Data from patent US6255324A, “Amino-and mercurio-substituted 4',5'-dihydropsoralens and therapeutical uses thereof” (priority 1998, dated 2001).
Structures can show the parent of a compound that is named as a salt. Where two headings read alike, the source gives them in different places.

How the values were obtained:
[1] = test system: PAM 212 keratinocytes; experiment: PAM 212 keratinocyte growth inhibition (photo-toxicity with UVA / dark-toxicity without light); type: cell-based; details: UVA 320-400 nm, 1.28 J/cm2, growth 4-5 days
Description: Representative examples of the compounds described and claimed herein were tested in this assay for biological activity and found to be potent inhibitors of cell growth. Inhibition of cell growth was rapid, dependent on concentration, and required light activation. […] A description of this assay follows.
The photobiological activity was assayed using a keratinocyte cell line grown in a monolayer culture. In this assay, PAM 212 keratinocytes were grown in Dulbecco's Modified Eagle's medium supplemented with 10% newborn calf serum in a 5% carbon dioxide incubator. Cells were inoculated into 6-well Falcon plastic culture dishes at 25,000 cells per well. After 24 hours, the medium was charged to fresh growth medium supplemented with increasing concentrations of the test compounds or the control medium. Controls and test concentrations were analyzed in triplicate.
These plates were then incubated in a 37 degree C. carbon dioxide incubator. After 30 minutes culture plates were exposed to UVA light (UVA, 320-400 nm) emitted from a bank of four BLB fluorescent light tubes (F40 BL, Sylvania) placed approximately 10 cm above the cell culture plates. The incident light on the culture plates was 2.4 mW/cm^2 as measured with an International Light UV radiometer, Model IL 442A. The cells were exposed to 1.28 J/square centimeter of UVA.
After completion of the irradiation phase, the cell culture medium was drained, the cells refed with fresh growth medium and then re-incubated in the carbon dioxide incubator to allow for cell growth. After 4-5 days of growth the culture plates were removed from the incubator and the cell culture medium was drained. The cells were detached from the plates with trypsin and counted in a Coulter Counter. For control cells or for cells treated with test compounds, cell growth was determined as a percentage of control. […] This value is shown in Table I for a variety of phototherapeutics.

[2] = test system: PAM 212 keratinocytes; experiment: as above; type: cell-based
[3] = test system: Mycobacterium tuberculosis H37Rv; experiment: Antituberculosis primary in vitro screen, BACTEC 460; type: cell-based, Mycobacterium tuberculosis H37Rv ATCC 27294; details: Mycobacterium tuberculosis, H37RV; 12.5 μg/mL, 37° C; read-out: Anti-tubercular Activity (% inhibition)
[4] = test system: Chlorella vulgaris; experiment: Algicidal assay, MIC against Chlorella in modified Allen's medium; type: cell-based; details: Table III, 14 days, 26 to 28° C, no unit in table (ppm)
Description: To assay the activity of the 5'-substituted-4',5'-dihydropsoralens of the invention against Chlorella, the Allen method (A. A. Allen, […], Journal of Phycology, 4, 1-4) was employed. […] The minimum inhibitory concentration (MIC) of the compounds tested against the fungus Aspergillus niger using an MSY broth is shown in Table II.
Test tubes containing modified Allen's medium were treated with increasing dosages of the compound to be tested and inoculated with a suspension of algal cells. After fourteen days of incubation, algal growth was rated as positive or negative. The minimum inhibitory concentration (MIC) of the compound is the smallest dosage showing negative algal growth.
The apparatus required consisted of sterilized test tubes, 18-150 mm and an incubator, capable of a constant (±2° C.) temperature within 26 to 28° C. The following procedure was used:
(1) Stock solutions (g/200 g deionized water each) were generated with: K2 HPO4, 1.50 g; MgSO4, 7H2 O, 1.50 g; Na2 CO3, 0.80 g; CaCl2 2H2 O, 0.50 g; Na2 SiO3 9H2 O, 1.16 g, and Citric acid, 1.20 g.
(3) The modified Allen's medium was prepared in a volumetric flask by the addition of 1.5 g NaNO3, 5.0 mL stock solution K2 HPO4, 5.0 mL stock solution MgSO4 -- 7H2 O, 5.0 mL Stock solution Na2 CO3, 10.0 mL stock solution CaCl2 2H2 O, 10.0 mL stock solution Na2 SiO3 9H2 O, 1.0 mL stock solution Citric acid and 1.0 mL stock solution PIV metal with enough deionized water to make 1000 mL of medium (Allen, 1968). The pH was adjusted to 7.8 and 5 mL of medium is added to each test tube. The tubes were sterilized in the autoclave for 20 minutes at 15 psi at 121° C. The test tubes were allowed to cool to 45-50° C. before adding the test compound and the inoculurn to the medium.
(4) The inoculum was a cell suspension from a 14-day-old culture of Chlorella vulgaris (UTEX 26, University of Texas) that was grown in modified Allen's medium.
The concentration of the stock solution in water or acetone of the compound to be tested is dependent on the largest dose required to be tested. Dilutions of the stock solution were made so that 100 μL of the stock solution of the corresponiding dilution was added per test tube. 100 μL of the solvent was added to the control to prepare the stock solution.
The inoculation consists of the addition of 100 μL of inoculurn per test tube.
The incubation of the control test tube and the test tubes containing compound and inoculum occurred in an incubator set between 26 to 28° C., with the temperature not varying more than ±2° C. Light was provided by plant growth fluorescent tubes and the test tubes were allowed to stand in the incubator for 14 days.
Rating of the test tubes containing different dosages of the compound will be positive or negative. […] If the medium in the rubes remains colorless, a negative (not contaminated) rating is given. The control is always positive. The minimum inhibitory concentration (MIC) of the compound is determined to be the smallest dosage showing negative algal growth.

[5] = test system: Aspergillus niger; experiment: Fungicidal assay, MIC against Aspergillus niger in MSY broth; type: cell-based; details: Table II, four days at 28° C, in the dark, no unit in table (ppm levels)
Description: The antifungal activities of compounds synthesized were measured by determining the inhibition of growth of Aspergillus niger in a standard liquid medium. The liquid growth medium is described as a solution of mineral salts and yeast extract (MSY). The MSY broth was prepared as described in ASTM G21-70, and amended with glucose (10 g/l) and yeast extract (1 g/l). An aliquot ([…]) of sterile medium was dispensed into each test well of a standard 96 well microplate (Corning No. 430247). Stock solutions of test compounds were prepared by dissolving the materials in 9:1 (v/v) solutions of acetone:methanol. Appropriate volumes of stock solutions were added to the test wells in order to achieve the desired ppm levels. Each test well (plus controls) was then inoculated with […] of a standardized suspension of Aspergillus niger. The cell suspension was prepared by suspending viable cells from a slant of potato dextrose agar into sterile, deionized water. The suspension was then adjusted to provide OD686 =0.28. This density contains approximately 2.5×10^7 CFU (colony forming units)/ml. The microplates were incubated in the dark for four days at 28° C. The optical density for each well at 686 nm was then recorded automatically using a SpectraMax 340 microplate reader (Molecular Devices Corp., Sunnyvale, Calif.). All wells were visually inspected in order to corroborate data from the instrument.
The antifungal activity was measured as minimum inhibitory concentrations or MIC of the 5'-substituted-4',5'-dihydropsoralens.

[6] = Mus musculus, PAM212, light or radiation study

Compound	IC50 [1, 6] [µM]	IC50 [1] [µM]	IC50 [2] [µM]	also measured
Cc1c(C#N)c(=O)oc2c(C)c3c(cc12)CC(C[n+]1ccccc1)O3 (stereo not shown) [R = CN, T = pyridinium iodide salt, 3-Cyano-4,8-dimethyl-5'-(N-pyridiniummethyl)-4',5'-dihydropsoralen Iodide Salt]	1000	–	–	–
CC(=O)[O][Hg][CH2]C1Cc2cc3c(C)c(F)c(=O)oc3c(C)c2O1 (stereo not shown) [R = F, T = HgOAc, 3-Fluoro-4,8-dimethyl-5'-acetomercurimethyl-4',5'-dihydropsoralen]	–	9.3	14	–
Cc1c(Br)c(=O)oc2c(C)c3c(cc12)CC(CI)O3 (stereo not shown) [R = Br, T = I, 3-Bromo-4,8-dimethyl-5'-iodomethyl-4',5'-dihydropsoralen]	0.48	–	–	inhibition at 12.5 µg/mL [3]: 25%
CC(=O)[O][Hg][CH2]C1Cc2cc3c(C)c(C#N)c(=O)oc3c(C)c2O1 (stereo not shown) [R = CN, T = HgOAc, 3-Cyano-4,8-dimethyl-5'-acetomercurimethyl-4',5'-dihydropsoralen]	–	20	30	–
Cc1c(F)c(=O)oc2c(C)c3c(cc12)CC(CI)O3 (stereo not shown) [R = F, T = I, 3-Fluoro-4,8-dimethyl-5'-iodomethyl-4',5'-dihydrofurocoumarin]	62	–	–	inhibition at 12.5 µg/mL [3]: 31%
Cc1cc(=O)oc2c(C)c3c(cc12)CC(CN1CC(C)OC(C)C1)O3 (stereo not shown) [R = H, T = 2,6-dimethylmorpholine, 4,8-Dimethyl-5'-(2,6-dimethylmorpholino)methyl-4',5'-dihydropsoralen]	0.01	–	–	–
Cc1c(Br)c(=O)oc2c(C)c3c(cc12)CC(C[n+]1ccccc1)O3 (stereo not shown) [R = Br, T = pyridinium iodide salt, 3-Bromo-4,8-dimethyl-5'-(N-pyridiniummethyl)-4',5'-dihydropsoralen Iodide Salt]	1.6	–	–	–
Cc1c(Br)c(=O)oc2c(C)c3c(cc12)CC(CN1C(=O)c2ccccc2C1=O)O3 (stereo not shown) [R = Br, T = phthalimido]	3.9	–	–	–
[Cl][Hg][CH2]C1Cc2ccccc2O1 (stereo not shown) [T = HgCl, 2-Chloromercurimethyl-2,3-dihydrobenzofuran]	–	5.9	13	MIC [4]: 10; MIC [5]: 24
Cc1cc(=O)oc2c(C)c3c(cc12)CC(CN(CCO)CCO)O3 (stereo not drawn) [R = H, T = N(CH2 CH2 OH)2, 4,8-Dimethyl-5'-[N,N-β-(hydroxyethylamino)-methyl]-4',5'-dihydropsoralen]	0.31	–	–	–
CC(=O)[O][Hg][CH2]C1Cc2ccccc2O1 (stereo not shown) [T = HgOAc, 2-Acetomercurimethyl-2,3-dihydrobenzofuran]	–	6.1	11	MIC [4]: 10; MIC [5]: 16
Cc1cc(=O)oc2c(C)c3c(cc12)CC(CN(C)C)O3 (stereo not shown) [R = H, T = dimethyl amino iodide salt, 4,8-Dimethyl-5'-[(N,N-dimethylamino)methyl]-4',5'-dihydropsoralen Hydroiodide Salt]	0.1	–	–	inhibition at 12.5 µg/mL [3]: 4%
Cc1cc(=O)oc2c(C)c3c(cc12)CC(CN1CCOCC1)O3 (stereo not shown) [R = H, T = morpholino, 4,8-Dimethyl-5'-morpholinomethyl-4',5'-dihydropsoralen]	3.2	–	–	–
Cc1cc(=O)oc2c(C)c3c(cc12)CC(CI)O3 (stereo not shown) [R = H, T = I, 4,8-Dimethyl-5'-iodomethyl-4',5'-dihydropsoralen]	1.1	–	–	inhibition at 12.5 µg/mL [3]: 24%
Cc1cc(=O)oc2c(C)c3c(cc12)CC([CH2][Hg][Cl])O3 (stereo not shown) [R = H, T = HgCl, 4,8-Dimethyl-5'-chloromercurimethyl-4',5'-dihydropsoralen]	–	6.1	15	MIC [4]: 10; MIC [5]: < 8
Cc1c(I)c(=O)oc2c(C)c3c(cc12)CC(CI)O3 (stereo not shown) [R = I, T = I, 3-Iodo-4,8-dimethyl-5'-iodomethyl-4',5'-dihydropsoralen]	4.2	–	–	inhibition at 12.5 µg/mL [3]: 17%
CC(=O)[O][Hg][CH2]C1Cc2cc3c(C)cc(=O)oc3c(C)c2O1 (stereo not shown) [R = H, T = HgOAc, 4,8-Dimethyl-5'-acetomercurimethyl-4',5'-dihydropsoralen]	–	4.8	6.2	MIC [4]: 10; MIC [5]: < 8
4,8-dimethyl-5'-trifluoroacetomercurimethyl-4',5'-dihydropsoralen [R = H, T = Hg-O-COCF3]	–	4.2	7	MIC [4]: 10; MIC [5]: 16
Cc1c(C#N)c(=O)oc2c(C)c3c(cc12)CC(CI)O3 (stereo not shown) [R = CN, T = I, 3-Cyano-4,8-dimethyl-5'-iodomethyl-4',5'-dihydropsoralen]	2.1	–	–	–
Cc1c(C#N)c(=O)oc2c(C)c3c(cc12)CC(CBr)O3 (stereo not shown) [R = CN, T = Br, 3-Cyano-4,8-dimethyl-5'-bromomethyl-4',5'-dihydropsoralen]	–	6.4	–	–
Cc1cc(=O)oc2c(C)c3c(cc12)CC(C[n+]1ccccc1)O3 (stereo not shown) [R = H, T = pyridinium iodide salt, 4,8-Dimethyl-5'-(N-pyridiniummethyl)-4',5'-dihydropsoralen Iodide Salt]	0.37	–	–	–
Cc1cc(=O)oc2c(C)c3c(cc12)CC([CH2][Hg][I])O3 (stereo not shown) [R = H, T = HgI, 4,8-Dimethyl-5'-iodomercurimethyl-4',5'-dihydropsoralen]	–	1.3	4.2	MIC [4]: 9; MIC [5]: < 8
Cc1c(F)c(=O)oc2c(C)c3c(cc12)CC(CBr)O3 (stereo not shown) [R = F, T = Br, 3-Fluoro-4,8-dimethyl-5'-bromomethyl-4',5'-dihydropsoralen]	–	4	–	–
Cc1cc(=O)oc2c(C)c3c(cc12)CC(C)O3 (stereo not shown) [R = H, T = H, reference compound]	0.27	–	–	–
